US5561161A, “Methods of administering and pharmaceutical formulations containing n-substituted benzamides and/or acid addition salts thereof” (priority 1994, dated 1996)
Entries after “also recorded” stand apart in the source; their conditions may differ. Structures can show the parent of a compound that is named as a salt. Where two headings read alike, the source gives them in different places.

What was measured:
[1] = cited from earlier work
[2] = test system: human lung adenocarcinoma (H-2981); experiment: Radiosensitization of human lung adenocarcinoma xenografts in Scid mice; conditions: 2 mg/kg i.m., -1 or -2 hours to 1 Gy; hydrochloride
Method: Tumor tissue suspensions were prepared and inoculated subcutaneously into the midback region of 3-5 week old Scid mice so that 10 mm×10 mm tumors were grown in about 25 days. […] The tumor volumes were measured and recorded every 2-3 days and analyzed by a t-test at day 17 after inoculation.

[3] = test system: 5-hydroxytryptamine3 (5-HT3) receptor; conditions: cited from earlier work
human cancer patients = conditions: intravenous, cisplatin chemotherapy; cited from earlier work
dopamine2 (D2) receptor = conditions: cited from earlier work

Row | SMILES | solubility in water / aqueous vehicles ([1]; hydrochloride) | radiosensitization, effect of pH (acidic vs neutral form) [2] | binding to 5-HT3 receptor [3] | inhibition of emesis (human cancer patients) | binding to D2 receptor (dopamine2 (D2) receptor) | sodium ion dependence of D2 receptor binding (dopamine2 (D2) receptor) | solubility in water / aqueous vehicles [1]
1 | CCN(CC)CCNC(=O)c1cc(Cl)c(N)cc1OC [metoclopramide hydrochloride] | freely soluble in water | not altered; also recorded: Lack of any measurable difference | – | – | – | – | –
2 | CCN(CC)CCNC(=O)c1cc(Cl)c(N)cc1OC [metoclopramide] | – | – | known to bind | can inhibit the biological response of emesis | known to bind | sodium ion dependent | quite insoluble in water
